System: Female mosquitoes, Aedes aegypti
Test: Y-tube olfactometer insect repellency assay
Type: in vivo
Set-up: key to Significance (attraction vs Control): NS—not significant; *, ** - significantly different; *, ** - significantly different
Details: 98%

`CCN(CC)C(=O)c1cccc(C)c1` [DEET, N,N-diethyl-3-methylbenzamide] was tested, and the “insect repellency, in words” value was “strongest repellency” and the “Significance (attraction vs Control)” value (vs mineral oil control) was “**”.

From patent US11116210B2 (priority 2017, dated 2021)
